Results published in patent US8791162B2, “Cathepsin cysteine protease inhibitors” (Merck Sharp & Dohme Corp., priority 2011, dated 2014).

How the values were obtained:
[1] = Rhesus IV Pharmacokinetics; assay type: in vivo, rhesus monkeys; conditions: for % AUC Extrap. / AUC(0-inf) / C0 / AUC / clearance / Vd / half-life: male rhesus monkeys; for concentration at 0.5 h: 0.50 hours; for AUC: read-out: AUC(0-x); for clearance: read-out: Cl (plasma clearance); for Vd: read-out: Vdss; for half-life: read-out: t½ (converted)
Experimental: The study was conducted in male rhesus monkeys (n=4) via the intravenous route using a deuteriated (D6-Odanacatib, or D6-ODN) and non-deuteriated (D0-Odanacatib, or D0-ODN) forms of odanacatib. The dosing solution was prepared in DMSO at a concentration of 7.5 mg/mL and the dose volume was 0.1 mL/kg. Each monkey was administered a 0.75 mg/kg dose each of D6-ODN and D0-ODN as a mixture. Animals were fasted overnight prior to dosing. The dose was administered via the saphenous vein. […] Plasma was stored at −70° C. until analysis.
The lower limit of quantitation was 0.48 nM.
Pharmacokinetic parameters were obtained using non-compartmental methods (Watson®). The plasma clearance (CLP) was calculated as the IV dose divided by the area under the plasma concentration versus time curve (AUC0-∞). AUC was determined using logarithmic trapezoidal interpolation.

human Cat K = target: T1, human Cat K (Homo sapiens, UniProt P43235); conditions: human Cat K vs other human cathepsins; cited from earlier work
T1 sequence (P43235 115-329): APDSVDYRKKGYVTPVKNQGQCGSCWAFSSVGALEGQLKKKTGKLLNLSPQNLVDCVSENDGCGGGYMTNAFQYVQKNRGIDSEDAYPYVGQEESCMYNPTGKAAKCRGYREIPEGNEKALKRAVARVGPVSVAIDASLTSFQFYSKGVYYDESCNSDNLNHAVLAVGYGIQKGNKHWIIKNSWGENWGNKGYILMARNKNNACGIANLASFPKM

[2] = rhesus monkey, in vivo, po, 2.5 mg/kg
Experimental: The pharmacokinetic evaluation was carried out following oral administration to monkeys of the following ODN forms and formulations: D6-ODN spray-dried formulation (A), D6-ODN conventional formulation (B), D0-ODN spray-dried formulation (C) and D0-ODN conventional formulation (D).
The deuterated analog of odanacatib (D6-ODN) as well as ODN (D0-ODN) were prepared either as spray-dried or conventional (crystalline) formulations for pharmacokinetic study in monkeys. The spray-dried form was suspended in water, while the crystalline drug was dissolved in Imwitor:Tween for oral administration to monkeys. Spray-dried D6-ODN (A), crystalline D6-ODN (B), spray-dried D0-ODN (C) and crystalline D0-ODN (D) were dosed to monkeys (n=4) in a cross-over fashion. Each monkey was administered a ˜2.5 mg/kg dose each of forms B and D as a mixture in period one, and forms C and A were then dosed after a washout period. […]
The concentrations of D6-ODN and D0-ODN in plasma were determined by LC-MS/MS in the positive ion mode using the Turbo Ion Spray interface. […] Quantification was based on selected reaction monitoring of the following precursor/product ion pairs: m/z 526.3→313.0 (D0-ODN); m/z 532.2→313.2 (D6-ODN); m/z 538.3→325.2 (^13C12-ODN). The lower limit of quantitation was 1.9 nM. […]

[3] = rhesus monkey, plasma, male rhesus monkeys n=4, 0.75 mg/kg IV
[4] = rhesus monkey, plasma, 0.75 mg/kg IV

Row | SMILES | % AUC Extrap. ([1]; 0.75 mg/kg IV) | concentration at 0.08 h [1, 3] | concentration at 0.25 h [1, 3] | concentration at 0.5 h [1, 3] | concentration at 1 h [1, 3] | concentration at 4 h [1, 3] | concentration at 8 h [1, 3] | concentration at 12 h [1, 3] | concentration at 24 h [1, 3] | concentration at 30 h [1, 3] | concentration at 48 h [1, 3] | AUC(0-inf) [1, 4] | C0 [1, 4] | AUC [1, 4] | clearance [1, 4] | Vd [1, 4] | half-life [1, 4] | other results
1 | CC(C)(F)C[C@H](N[C@@H](c1ccc(-c2ccc(S(C)(=O)=O)cc2)cc1)C(F)(F)F)C(=O)NC1(C#N)CC1 [Example D0-ODN, N^1-(1-cyanocyclopropyl)-4-fluoro-N^2-{(1S)-2,2,2-trifluoro-1-[4′-(methylsulfonyl)-1,1′-biphenyl-4-yl]ethyl}-L-leucinamide, reference compound] | 0.25% | 1020 nM | 947 nM | 872 nM | 854 nM | 462 nM | 250 nM | 130 nM | 14.5 nM | 6.22 nM | 1.22 nM | 5.73 µM·h | 1080 nM | 5.71 µM·h | 4.6 mL/min/kg | 1.9 L/kg | 3.7 h | selectivity against all other known human cathepsins (human Cat K): ≥ 300 fold
2 | [2H]C([2H])([2H])C(F)(C[C@H](N[C@@H](c1ccc(-c2ccc(S(C)(=O)=O)cc2)cc1)C(F)(F)F)C(=O)NC1(C#N)CC1)C([2H])([2H])[2H] [Example D6-ODN, (2S)—N-(1-cyanocyclopropyl)-5,5,5-trideuterio-4-fluoro-4-(trideuteriomethyl)-2-[[(1S)-2,2,2-trifluoro-1-[4-(4-methylsulfonylphenyl)phenyl]ethyl]amino]pentanamide] | 1.7% | 894 nM | 839 nM | 793 nM | 831 nM | 633 nM | 633 nM | 515 nM | 273 nM | 208 nM | 70.7 nM | 18 µM·h | 933 nM | 17.7 µM·h | 1.4 mL/min/kg | 1.7 L/kg | 16 h | concentration at 72 h ([1]; rhesus monkey, plasma, male rhesus monkeys n=4, 0.75 mg/kg IV, 72.00 hours): 28.4 nM; concentration at 96 h ([1]; rhesus monkey, plasma, male rhesus monkeys n=4, 0.75 mg/kg IV, 96.00 hours): 13.8 nM; higher exposure compared to D0-ODN ([1]; rhesus monkeys, 0.75 mg/kg IV): 3 fold; longer half-life compared to D0-ODN ([1]; rhesus monkeys, 0.75 mg/kg IV): 4 fold; lower clearance compared to D0-ODN ([1]; rhesus monkeys, 0.75 mg/kg IV): 3 fold; increase in plasma elimination half-life of ODN by deuterium substitution [2]: about 2.5 fold
